# Measured values: US20220401414A1, “TREATMENT AND PREVENTION OF A NEURODEGENERATIVE DISORDER” (Inflazome Limited, priority 2019, published 2022)
# Columns and labels:
# [1] = tested on: IL-1β; assay: Study H: IL-1β ELISA in plasma of PFF-Synuclein mice; format: in vivo, C57BL6 mice; conditions: 0.3 mg/ml drinking water, 12 months after PFF-Synuclein injections
# From the text: To determine the oral efficacy of the compound of formula (I) in a chronic progressive model of Parkinson's disease (PD), the preformed fibrils (PFF) mouse model, using a prophylactic and therapeutic dosing schedule.
# 8-week-old C57BL6 male mice (obtained from ARC, Perth, Australia) were housed under a 12-h light cycle in a SPF climate-controlled facility with food and water provided ad libitum for two weeks prior to study initiation. The compound of formula (I) (or water alone for control animals) was administrated to mice in drinking water at 0.3 mg/ml. Animals were separated into the groups described in Table 9, with ten animals initiated in each cohort. […]
# Recombinant human a-synuclein was obtained from rPeptide Inc., and in vitro fibril generation was performed with a final concentration of 2 mg/ml in phosphate-buffered saline (PBS) by incubation at 37° C. with agitation in an orbital mixer (400 rpm) for 7 days with daily cycles of sonication used to break down fibrillar aggregates as outlined in previously published reports (see Luk et al., Science, 2012, vol. 338(6109), pp. 949-53; and Zhang et al., Methods Mol. Biol., 2019, vol. 1948, pp. 45-57, which are incorporated in their entirety herein by reference). The generation of fibrillar α-synuclein species was confirmed by transmission electron microscopy and Thioflavin T fluorescence prior to use. […]
# [2] = tested on: 6-OHDA mouse model of Parkinson's disease; assay: Studies C and D: amphetamine-induced ipsilateral rotations in the 6-OHDA mouse model; format: in vivo, C57BL6 mice; conditions: day 21 after 6-OHDA (12 μg)
# Experimental: To determine the oral efficacy of the compound of formula (I) in the 6-OHDA mouse model of Parkinson's disease.
# 8-week-old C57BL6 male mice (obtained from ARC, Perth, Australia) were housed under a 12-h light cycle in a SPF climate-controlled facility with food and water provided ad libitum for two weeks prior to study initiation. For treatment with the compound of formula (I), mice were dosed via oral gavage. Ten (10) mice in each group were dosed at 3 or 1 mg/kg, starting the day before (24 hr prior) stereotaxic surgery, and then QD until sacrifice.
# 6-OHDA (Sigma) was prepared immediately prior to surgeries. A sterile saline (0.9%) solution containing ascorbic acid (0.2%) was used as the vehicle to dissolve 6-OHDA. […] In order to inject a final concentration of 12 μg into the right striatum, a working stock of 6 mg/ml was made injecting a final volume of 2 μl.
# Mice were anaesthetized using ketamine (100 mg/kg, i.p.) and xylazine (10 mg/kg i.p.)
# anesthesia and were placed into a stereotactic frame with nose and ear bars specially adapted for mice. The lesion was performed using a 5 μl Hamilton syringe to deliver either vehicle or 6-OHDA (12 μg) at the following coordinates relative to bregma: AP: −1.2 mm; ML: −1.7 mm; DV: 3.5 mm into the right dorsal striatum according to the stereotaxic atlas (“The mouse brain in stereotaxic coordinates” by Paxinos and Franklin, 1997). After drilling a 1 mm burr-hole in the skull, a 2 μl volume of solution was infused at the target site at the rate of 0.5 μl per minute. The needle was held in place for at least 5 minutes after injection to minimize retrograde flow along the needle tract. Mice were administered a subcutaneous injection of sterile Ringer's solution to is facilitate recovery and were placed on a heat-pad until complete recovery from anesthesia.
# Amphetamine-induced ipsilateral rotations were performed at day 21 post-surgery. Mice were injected with 2 mg/kg of D-amphetamine and placed in circular glass bowls.
# After an acclimatization period of five minutes, the net ipsilateral rotations over ten minutes were recorded and counted. Quantitation was performed from recorded videos by an investigator blinded to the treatment groups.
# The aim of study D was to compare the neuroprotective efficacy of the compound of formula (I) with MCC95o in the mouse unilateral 6-OHDA model at 3 mg/kg. The amphetamine-induced ipsilateral rotations and striatal dopamine (DA) levels were assessed, using a protocol identical to that used for study C, with ten (10) mice in each group being dosed at 3 mg/kg for each drug, starting the day before (24 hr prior) stereotaxic surgery, and then daily throughout until sacrifice.
structure (smiles),measurement,setting,value
CC(C)n1ccc(S(=O)(=O)NC(=O)Nc2c3c(cc4c2CCC4)CCC3)n1 [compound of formula (I)],circulating IL-1β in plasma compared with the PFF-Synuclein group,[1]; prophylactic treatment,significant decrease in circulating IL-1β
same,circulating IL-1β in plasma compared with the PFF-Synuclein group,[1]; therapeutic treatment,significant decrease in circulating IL-1β
same,amphetamine-induced ipsilateral rotations,"[2]; Study C, 3 mg/kg oral gavage QD from 24 hr before surgery",significant protective effect
same,amphetamine-induced ipsilateral rotations,"[2]; Study D, 3 mg/kg oral daily",fewer ipsilateral rotations compared to MCC950
same,reduction in amphetamine-induced rotations relative to the 6-OHDA untreated group,"[2]; Study D, 3 mg/kg oral daily",75%
